Measurements as given in patent US8778966B2, “Quinolinone derivatives as PARP and tank inhibitors” (Janssen Pharmaceutica, NV, priority 2007, dated 2014).

Molecular target: T1, TANK-2 enzyme (Homo sapiens, UniProt Q9H2K2)
T1 construct: made in house
T1 sequence (Q9H2K2 1-1166): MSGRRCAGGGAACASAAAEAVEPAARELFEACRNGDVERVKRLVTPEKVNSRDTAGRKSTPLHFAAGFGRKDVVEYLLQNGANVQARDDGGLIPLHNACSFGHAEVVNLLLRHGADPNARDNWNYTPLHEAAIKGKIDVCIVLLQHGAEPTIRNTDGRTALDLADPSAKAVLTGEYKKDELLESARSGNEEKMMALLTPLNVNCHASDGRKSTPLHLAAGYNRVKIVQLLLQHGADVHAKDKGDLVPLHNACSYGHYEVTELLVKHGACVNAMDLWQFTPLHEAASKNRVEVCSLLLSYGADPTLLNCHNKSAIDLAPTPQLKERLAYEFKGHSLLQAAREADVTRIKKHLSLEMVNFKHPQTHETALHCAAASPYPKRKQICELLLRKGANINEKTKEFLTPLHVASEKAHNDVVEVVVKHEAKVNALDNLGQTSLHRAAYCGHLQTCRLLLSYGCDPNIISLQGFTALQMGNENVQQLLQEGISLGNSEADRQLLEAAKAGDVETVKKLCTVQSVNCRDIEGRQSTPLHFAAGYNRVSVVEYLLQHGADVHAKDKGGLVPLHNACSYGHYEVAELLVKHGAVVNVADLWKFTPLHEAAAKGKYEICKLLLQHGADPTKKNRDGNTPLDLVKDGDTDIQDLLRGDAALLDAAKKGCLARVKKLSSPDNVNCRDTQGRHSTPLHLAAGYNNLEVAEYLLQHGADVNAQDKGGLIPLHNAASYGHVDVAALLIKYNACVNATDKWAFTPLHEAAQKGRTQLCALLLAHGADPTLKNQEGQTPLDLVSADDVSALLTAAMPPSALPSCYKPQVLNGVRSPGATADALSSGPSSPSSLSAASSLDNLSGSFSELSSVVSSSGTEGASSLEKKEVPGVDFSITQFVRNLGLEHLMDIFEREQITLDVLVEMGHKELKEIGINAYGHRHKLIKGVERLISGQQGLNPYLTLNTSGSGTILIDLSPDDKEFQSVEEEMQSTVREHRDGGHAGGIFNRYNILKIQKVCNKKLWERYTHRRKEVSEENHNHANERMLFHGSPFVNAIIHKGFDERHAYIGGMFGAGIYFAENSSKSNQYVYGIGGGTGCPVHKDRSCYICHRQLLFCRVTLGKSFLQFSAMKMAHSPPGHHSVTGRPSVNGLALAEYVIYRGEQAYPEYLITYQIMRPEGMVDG
Experiment: In vitro Scintillation Proximity Assay (SPA) for TANK-2 inhibitory activity
Format: biochemical
Conditions: read-out: in vitro SPA assay TANK-2 pIC50 (converted)
Method in brief: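 TANK-2 (8 μg/ml final) auto-poly(ADP-ribosyl)ation with [3H]-NAD+/NAD donor was run in Ni flash plates in Tris/HCl pH 7.4 buffer with DTT and MgCl2, 120 min at room temperature, then stopped with excess NAD and scintillation-counted. Blank-corrected cpm was expressed as % of enzyme control, and IC50 was linearly interpolated and reported as pIC50.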

| SMILES | IC50 |
| --- | --- |
| CCc1cc2ccc([C@](C)(C#N)[C@H]3CCOc4ccccc43)cc2[nH]c1=O (single isomer, unassigned) [Compound 394] | 1000 nM |
| C=C(C)c1cccc(CC(C)(C#N)c2ccc3cc(CC)c(=O)[nH]c3c2)c1 (stereo not drawn) [Compound 254] | 251 nM |
| CCc1cc2ccc(C(C)(C#N)CCOc3ncc(Br)cn3)cc2[nH]c1=O (stereo not drawn) [Compound 349] | 200 nM |
| CCc1cc2ccc(C(C)(C#N)Cc3ccnc(F)c3)cc2[nH]c1=O (stereo not drawn) [Compound 330] | 398 nM |
| CCc1cc2ccc(C(C)(C#N)Cc3cccc(S(F)(F)(F)(F)F)c3)cc2[nH]c1=O (stereo not drawn) [Compound 177] | 398 nM |
| CCc1cc2ccc(C(C)(C#N)Cc3cccc(I)c3)cc2[nH]c1=O (stereo not drawn) [Compound 19] | 158 nM |
| Cc1cc2ccc([C@](C)(C#N)C3CCc4cccnc43)cc2[nH]c1=O (single isomer, unassigned) [Compound 388] | 631 nM |
| CCc1cc2ccc([C@@](C)(C#N)CN(C)Cc3ccc(C#N)cc3)cc2[nH]c1=O (single isomer, unassigned) [Compound 253] | 200 nM |
| Cc1cc2ccc([C@](C)(C#N)[C@@H]3CCc4cc(Br)ccc43)cc2[nH]c1=O [Compound 242] | 7940 nM |
| CCc1cnc(OCCC(C)(C#N)c2ccc3cc(CC)c(=O)[nH]c3c2)nc1 (stereo not drawn) [Compound 222] | 100 nM |
| CCc1cc2ccc(C(C)(C#N)Cc3cccc(N4CCOCC4)c3)cc2[nH]c1=O (stereo not drawn) [Compound 21] | 63.1 nM |
| Cc1cc2ccc(C(C)(C#N)C3CCc4cc(Br)ccc43)cc2[nH]c1=O (stereo not drawn) [Compound 244] | 7940 nM |
| CCc1cc2ccc([C@](C)(C#N)Cc3cc(F)cc(F)c3)cc2[nH]c1=O [Compound 333] | 79.4 nM |
| CCc1cc2ccc(C(C#N)(CC)Cc3cccc(C#N)n3)cc2[nH]c1=O (stereo not drawn) [Compound 342] | 39.8 nM |
| CCc1cc2ccc(C(C)(C#N)Cc3cccc(-c4cnn(C)c4)c3)cc2[nH]c1=O (stereo not drawn) [Compound 17] | 50.1 nM |
